One data set has as its target T1, human MCH-1 receptor (Homo sapiens, UniProt Q99705).
T1 construct: expressed in transfected cells
Description: Ca2+ mobilization experiment for the MCH-1 receptor (FLIPR), inhibition of MCH-induced Ca2+ response. To be noted: CHO cells stably expressing human MCH-1 receptor, submaximal MCH concentration, read-out: MCH-1 pIC50 (converted). The format is cell-based. The protocol:
The interaction of the compounds of Formula (I) with MCH-1 receptors was assessed in in vitro transient calcium (Ca^2+) mobilization assays in the fluorimetric imaging plate reader (FLIPR) format (Sullivan et al. 1999, Methods Mol Biol 114:125-133). In general, the natural agonist (MCH) is incubated with cells expressing the MCH-1 receptor, which elicits a concentration-dependent transient mobilization of Ca^2+ from internal stores. The interaction of the test compounds with the receptor is assessed in competition experiments. Various concentrations of the test compound are added to the incubation mixture containing the receptor-expressing cells and a submaximal concentration of MCH. The test compound in proportion to its antagonist potency and its concentration inhibits MCH-induced Ca^2+ mobilization.
Cell culture and membrane preparation. Chinese Hamster ovary cells (CHO) stably expressing the human MCH-1 receptor are grown in a 1:1 mixture of Dulbecco's Modified Eagles Medium (DMEM) and HAM's F12 medium including Glutamax™ (Invitrogen), supplemented with 10% heat-inactivated fetal bovine serum and 400 μg/ml geneticin.
Ca^2+ mobilization experiment for the MCH-1 receptor. Twenty-four hours before the experiment, MCH-1 receptor-expressing CHO cells are seeded in 20 μl (5,000 cells per well) into 384-well black wall, clear bottom microtiter plates (Costar). On the day of the experiment, 20 μl per well calcium assay kit containing 10 mM probenicide (Molecular Devices) is added. Cells are loaded for 90 min at 37° C. and 5% CO2 in a cell culture incubator. After loading, 20 μl of serial dilutions of the test compound are added and cells are further incubated for 20 min at room temperature in the dark. After 20 min, 20 μl of a submaximal MCH concentration is added and changes in intracellular calcium are recorded directly in a FLIPR III apparatus (Molecular devices).
Data analysis and results. Data from assays in the presence of compound were calculated as a percentage of total Ca^2+-responses measured in the absence of test compound. Inhibition curves, plotting percent of total Ca^2+-responses versus the log value of the concentration of the test compound, were automatically generated, and sigmoidal inhibition curves were fitted using non-linear regression. The pIC50 values of test compounds were derived from individual curves.
Background: Calcium assays in cells follow changes in intracellular calcium, usually with a dye or a luminescent sensor.

A further data set concerns the target T2, HERG potassium channel (Homo sapiens, UniProt Q12809).
T2 construct: expressed in transfected cells
Description: hERG-mediated K+ tail current, automated whole-cell patch clamp (PatchXpress 7000A) in HEK293 cells stably transfected with HERG. The following applies: measured after 5 minutes of drug application. The format is cell-based. The source says: To determine the extent of block the residual current was compared with vehicle pre-treatment.
(In general: Block of hERG is tested as a sign of cardiac risk.)

SMILES strings stand for the structures.

T1 sequence (Q99705 whole entry): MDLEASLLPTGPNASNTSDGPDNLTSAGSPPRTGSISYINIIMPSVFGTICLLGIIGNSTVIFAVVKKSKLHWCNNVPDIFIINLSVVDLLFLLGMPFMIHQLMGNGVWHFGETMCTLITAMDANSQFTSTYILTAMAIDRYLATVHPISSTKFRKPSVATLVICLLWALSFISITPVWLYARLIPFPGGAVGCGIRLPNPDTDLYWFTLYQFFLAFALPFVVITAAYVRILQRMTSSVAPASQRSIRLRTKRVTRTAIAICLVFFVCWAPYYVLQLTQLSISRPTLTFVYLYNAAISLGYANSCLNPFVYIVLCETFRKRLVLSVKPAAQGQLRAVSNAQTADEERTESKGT
T2 sequence (Q12809 whole entry): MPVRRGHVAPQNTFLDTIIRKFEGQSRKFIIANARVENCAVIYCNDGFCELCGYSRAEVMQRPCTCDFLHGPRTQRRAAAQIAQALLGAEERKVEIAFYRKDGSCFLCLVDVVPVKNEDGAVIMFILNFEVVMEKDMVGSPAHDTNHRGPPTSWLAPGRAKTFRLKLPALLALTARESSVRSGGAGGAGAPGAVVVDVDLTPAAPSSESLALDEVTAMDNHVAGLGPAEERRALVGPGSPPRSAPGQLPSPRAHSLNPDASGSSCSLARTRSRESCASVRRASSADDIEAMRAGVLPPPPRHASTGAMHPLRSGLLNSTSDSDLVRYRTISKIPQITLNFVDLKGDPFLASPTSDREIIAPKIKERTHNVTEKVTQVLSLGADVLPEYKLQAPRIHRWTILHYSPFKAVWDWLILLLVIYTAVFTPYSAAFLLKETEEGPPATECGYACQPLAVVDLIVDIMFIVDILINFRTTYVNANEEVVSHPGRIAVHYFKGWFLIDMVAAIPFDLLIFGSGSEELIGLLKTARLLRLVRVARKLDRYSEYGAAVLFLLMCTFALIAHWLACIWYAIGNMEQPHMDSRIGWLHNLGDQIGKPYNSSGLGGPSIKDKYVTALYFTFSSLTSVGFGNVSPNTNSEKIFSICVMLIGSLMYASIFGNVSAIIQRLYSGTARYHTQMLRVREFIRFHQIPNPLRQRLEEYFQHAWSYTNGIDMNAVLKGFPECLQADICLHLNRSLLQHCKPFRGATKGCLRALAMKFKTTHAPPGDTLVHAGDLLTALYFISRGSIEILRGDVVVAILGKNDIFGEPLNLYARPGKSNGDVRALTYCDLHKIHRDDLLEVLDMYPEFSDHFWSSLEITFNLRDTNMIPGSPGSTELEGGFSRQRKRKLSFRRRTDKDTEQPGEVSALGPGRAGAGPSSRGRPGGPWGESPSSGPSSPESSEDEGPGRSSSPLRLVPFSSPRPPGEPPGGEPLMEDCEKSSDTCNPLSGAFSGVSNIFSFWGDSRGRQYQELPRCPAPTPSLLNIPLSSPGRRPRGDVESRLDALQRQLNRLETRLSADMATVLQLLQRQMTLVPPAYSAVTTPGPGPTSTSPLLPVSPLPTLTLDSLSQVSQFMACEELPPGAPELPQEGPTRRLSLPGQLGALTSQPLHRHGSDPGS

Regarding `O=c1cc(OCc2ccccc2)ccn1-c1ccc(N2CCC3(CC2)CNC3)cc1` [Compound 1-1], the IC50 on human MCH-1 receptor was 79.4 nM. `O=c1cc(OCc2ccccc2)ccn1-c1ccc(N2CCC3(CCCNC3)CC2)cc1` [Compound 1-2] came in with a melting point of 141.5 °C. Moreover, the IC50 on human MCH-1 receptor is 50.1 nM.

In the case of `O=c1cc(OCc2ccccc2)ccn1-c1ccc(N2CCC3(CC2)CNCCO3)cc1` [Compound 1-3], the IC50 on human MCH-1 receptor was 126 nM. `O=c1cc(OCc2ccccc2)ccn1-c1ccc(N2CCCC3(CCNC3)C2)cc1` (stereo not drawn) [Compound 1-4]: the IC50 on human MCH-1 receptor is 31.6 nM. In turn, `O=c1cc(OCc2ccccc2)ccn1-c1ccc(N2CC3(CCNCC3)C2)cc1` [Compound 1-5] gave a melting point of 203.2 °C. Besides, the IC50 at human MCH-1 receptor is 31.6 nM. On to `O=c1cc(OCc2ccccc2)ccn1-c1ccc(N2CCC3(CCCNC3)C2)cc1` (stereo not drawn) [Compound 1-6], for which the IC50 at human MCH-1 receptor is 25.1 nM.

In turn, `O=c1cc(OCc2ccccc2)ccn1-c1ccc(N2CCC3(CCNCC3)C2)cc1` [Compound 1-7] came in with a melting point of 236.3 °C. Also, the IC50 at human MCH-1 receptor was 63.1 nM. Moreover, the “hERG-reduction (%) at 3 μM” value on HERG potassium channel is recorded as −1.8%. `CCN1CCC2(CC1)CN(c1ccc(-n3ccc(OCc4ccccc4)cc3=O)cc1)C2` [Compound 1-8]: the IC50 at human MCH-1 receptor is 63.1 nM. As for `O=c1cc(OCc2ccccc2)ccn1-c1ccc(N2CC3(CCN(C4CC4)CC3)C2)cc1` [Compound 1-9], the melting point turned out to be 276.5 °C. The IC50 at human MCH-1 receptor is 100 nM.

`O=C1CC2(CCNCC2)CN1c1ccc(-n2ccc(OCc3ccccc3)cc2=O)cc1` [Compound 1-10]: at human MCH-1 receptor, the IC50 is 79.4 nM.

Consider `O=C1N(c2ccc(-n3ccc(OCc4ccccc4)cc3=O)cc2)CC12CCNCC2` [Compound 1-11], for which the IC50 on human MCH-1 receptor was 50.1 nM.

As to `O=c1cc(OCc2ccccc2)ccn1-c1ccc(N2CC3(CCNCC3)C2)cc1` [Compound 1-12], the melting point is 231 °C. For the same compound, the IC50 at human MCH-1 receptor was 25.1 nM. The “hERG-reduction (%) at 3 μM” value at HERG potassium channel amounted to 0.7%.

As for `CN1CCC2(CC1)CCN(c1ccc(-n3ccc(OCc4ccccc4)cc3=O)cc1)C2` [Compound 1-14], the IC50 at human MCH-1 receptor was 31.6 nM. Take `Cc1cc(-n2ccc(OCc3ccccc3)cc2=O)ccc1N1CC2(CCNCC2)C1` [Compound 2-1]: the melting point worked out at 164.6 °C. Besides, the IC50 at human MCH-1 receptor was 25.1 nM. On HERG potassium channel, the “hERG-reduction (%) at 3 μM” value came to 15.6%. As for `COc1cc(-n2ccc(OCc3ccccc3)cc2=O)ccc1N1CC2(CCNCC2)C1` [Compound 2-2], at human MCH-1 receptor, the IC50 was 39.8 nM.

As for `O=c1cc(OCc2ccccc2)ccn1-c1ccc(N2CC3(CCNCC3)C2)c(Cl)c1` [Compound 2-3], the IC50 at human MCH-1 receptor was 25.1 nM. Still for that read-out and setting: in the case of `CN1CCC2(CC1)CN(c1ccc(-n3ccc(OCc4ccccc4)cc3=O)cc1Cl)C2` [Compound 2-4] it was 31.6 nM; in that of `O=c1cc(/C=C/c2ccccc2)ccn1-c1ccc(N2CC3(CCNCC3)C2)cc1` [Compound 3-1], 63.1 nM; in that of `O=c1cc(OCc2ccc(F)cc2)ccn1-c1ccc(N2CC3(CCNCC3)C2)cc1` [Compound 3-2], 39.8 nM. Turning to `O=c1cc(COc2ccccc2)ccn1-c1ccc(N2CC3(CCNCC3)C2)cc1` [Compound 3-3], the melting point came out at 292.7 °C. Also, the IC50 at human MCH-1 receptor was 501 nM.

Usually melting point stands for the temperature of the solid-liquid transition.

Values taken from patent publication US8158643B2, “Substituted diaza-spiro-pyridinone derivatives for use in MCH-1 mediated diseases” (Janssen Pharmaceutica N.V., priority 2006, dated 2012).
